Experimental findings from patent publication US20230391785A1, “NITROGEN-CONTAINING HETEROCYCLIC COMPOUND, METHOD FOR PREPARING SAME AND USE OF SAME” (280 Bio, Inc., priority 2021, published 2023) are described below.

Assay type in all cases: cell-based
Assay [1] relates to NCI-H358 cells (KRAS G12C mutation). Put plainly: Proliferation inhibition measured by CTG (CellTiter Glo), NCI-H358. The note with it: Homo sapiens, 120 hours incubation. An excerpt:
(§1) NCI-H358 is a human non-small cell lung cancer cell line with KRAS G12C mutation; PANC-1 and AsPC-1 are pancreatic cancer cell lines with KRAS G12D mutation; AGS is a gastric cancer cell line with KRAS G12D mutation; A427 is a lung cancer cell line with KRAS G12D mutation; THP-1 is a leukemia cell line with NRAS G12D mutation; Hs 578T is a breast cancer cell line with HRAS G12D mutation; SW480 is a colon cancer cell lines with KRAS G12V mutation; A375 is a wild type malignant melanoma cell line. The proliferation inhibitory effect of the compounds on various mutations was evaluated by determining the proliferation inhibitory activity of the compounds on these cell lines.
(§2) The assay was conducted on either 384-well plates or 96-well plates. The procedures are as follows:
(§3) The cell suspensions were added to 384- or 96-well plates (384-well plate: 40 μL; 96-well plate: […]) except for peripheral wells. The plates were incubated in a carbon dioxide incubator overnight. Prepared compounds (10 concentration gradients by serial 3-fold dilution) were added to the wells. The cell plates were incubated in a carbon dioxide incubator for 120 hours. CellTiter Glo reagent (384 well plate: 25 μL; 96 well plate: 100 μL) was added to the 384- or 96-well plates. The plates were shaken for 10 minutes away from light, and incubated for 10 minutes. The plates were read by EnVision system. Inhibition curves were plotted using XLFit and IC50 values were calculated. “IC50>10 μM” is denoted by “*”, “10 μM≥IC50>1 μM” is denoted by “**”, “1 μM≥IC50>100 nM” is denoted by “***”, and “IC50≤100 nM” is denoted by “****”.
For orientation: In ATP-based viability assays light output follows the ATP content of the culture.

Assay [2] has as its system A375 wild type malignant melanoma cell line. Put plainly: Proliferation inhibition measured by CTG (CellTiter Glo), A375. The note with it: Homo sapiens, A-375, CTG, 120 hours incubation.
Source text: as §1, §2, §3

Assay [3] relates to AsPC-1 pancreatic cancer cell line (KRAS G12D mutation). Put plainly: Proliferation inhibition measured by CTG (CellTiter Glo), AsPC-1. The note with it: Homo sapiens, ASPC1; Table 1; CTG, 120 hours incubation; class symbol.
Source text: as §1, §2, §3

For assay [4], the system named is THP-1 leukemia cell line (NRAS G12D mutation). Nature of the assay: Proliferation inhibition measured by CTG (CellTiter Glo), THP-1. The note with it: Homo sapiens, Table 1, CTG, 120 hours incubation, class symbol.
Source text: as §1, §2, §3

Assay [5] has as its system AGS gastric cancer cell line (KRAS G12D mutation). Put plainly: Proliferation inhibition measured by CTG (CellTiter Glo), AGS. The note with it: CTG, 120 hours incubation.
Source text: as §1, §2, §3

Assay [6] concerns Hs 578T breast cancer cell line (HRAS G12D mutation). Nature of the assay: Proliferation inhibition measured by CTG (CellTiter Glo), Hs 578T. The note with it: Homo sapiens, Table 1, CTG, 120 hours incubation, class symbol.
Source text: as §1, §2, §3

Assay [7] concerns A427 lung cancer cell line (KRAS G12D mutation). Nature of the assay: Proliferation inhibition measured by CTG (CellTiter Glo), A427. The note with it: Homo sapiens, A-427; Table 1; CTG, 120 hours incubation; class symbol.
Source text: as §1, §2, §3

Where [8] appears, read: Table 1, CTG, class symbol, read-out: IC50 (H358).
[9] abbreviates: Table 1, class symbol, read-out: IC50 (A375).
Setting [10] is: Table 1, class symbol, read-out: IC50 (AGS).

As a reminder, the IC50 is the concentration that inhibits the measured activity by half.

Read-outs that look alike come from different tables or passages of the source.

Regarding `CN1CCC(Oc2nc3c(c(N4CCn5cncc5C4)n2)CCN(c2cccc4cccc(Cl)c24)C3)CC1` [Compound 20], the IC50 in assay [1] (setting [8]) fell in the range of 0.1 to 1 µM; in assay [2] (setting [9]), 1 to 10 µM; in assay [3], 1 to 10 µM; in assay [4], 0.1 to 1 µM; in assay [5] (setting [10]), 0.1 to 1 µM; in assay [6] it was 1 to 10 µM.
In the case of `CN1CCO[C@@H](COc2nc3c(c(N4CCn5cncc5C4)n2)CCN(c2cccc4cccc(Cl)c24)C3)C1` [Compound 32], the IC50 in assay [1] (setting [8]) lay within 0.1 to 1 µM; in assay [2] (setting [9]) it was 1 to 10 µM; in assay [3] it was 1 to 10 µM; in assay [4], 1 to 10 µM; in assay [5] (setting [10]) it was 1 to 10 µM; in assay [6] it was 1 to 10 µM.
With `CN1CCC[C@H]1COc1nc2c(c(N3CCn4c(cnc4C#N)C3)n1)CCN(c1cccc3cccc(Cl)c13)C2` [Compound 8], the IC50 is 1 to 10 µM in assay [1] (setting [8]), 0.1 to 1 µM in assay [2] (setting [9]), 1 to 10 µM in assay [3] and 0.1 to 1 µM in assay [7].
With `CN1CCC[C@H]1COc1nc2c(c(N3CCn4c(cnc4CO)C3)n1)CCN(c1cccc3cccc(Cl)c13)C2` [Compound 6], the IC50 in assay [1] (setting [8]), in assay [2] (setting [9]), in assay [3] and in assay [7] was 0.1 to 1 µM each time.
Consider `CN1CCC[C@@H]1COc1nc2c(c(N3CCn4cncc4C3)n1)CO[C@H](c1cccc3cccc(Cl)c13)C2` [Compound 4], for which the IC50 in assay [1] (setting [8]) lay in the range of 1 to 10 µM; in assay [2] (setting [9]), 0.1 to 1 µM; in assay [3], 1 to 10 µM; in assay [7] it was 0.1 to 1 µM.
On to `CN1CCC[C@H]1COc1nc2c(c(N3CCn4cnc(-c5ccccc5)c4C3)n1)CCN(c1cccc3cccc(Cl)c13)C2` [Compound 30], for which the IC50 in assay [1] (setting [8]) is 0.1 to 1 µM; in assay [2] (setting [9]) it was 0.1 to 1 µM; in assay [3], 0.1 to 1 µM; in assay [4], 0.1 to 1 µM; in assay [5] (setting [10]), 0.1 to 1 µM; in assay [6], 1 to 10 µM.
Regarding `CN1CCC[C@H]1COc1nc(N2CCn3cncc3C2)c2ccc(-c3cccc4cccc(Cl)c34)cc2n1` [Compound 1], the IC50 in assay [1] (setting [8]), in assay [2] (setting [9]), in assay [3] and in assay [7] was 0.1 to 1 µM each time.
`Cc1cccc2cccc(N3CCc4c(nc(OC[C@@H]5CCCN5C)nc4N4CCn5cncc5C4)C3)c12` [Compound 17]: the IC50 in assay [1] (setting [8]), in assay [2] (setting [9]), in assay [3] and in assay [7] was 0.1 to 1 µM in each case.
On to `CC(CN(C)C)Oc1nc2c(c(N3CCn4cncc4C3)n1)CCN(c1cccc3cccc(Cl)c13)C2` (stereo not shown) [Compound 29], for which the IC50 is at most 0.1 µM in assay [1] (setting [8]); 0.1 to 1 µM in assay [2] (setting [9]); at most 0.1 µM in assay [3]; 0.1 to 1 µM in assay [4]; at most 0.1 µM in assay [5] (setting [10]); 0.1 to 1 µM in assay [6].
For `CN1CCC[C@@H]1COc1nc2c(c(N3CCn4cncc4C3)n1)CCN(c1cccc3cccc(Cl)c13)C2` [Compound 18], the IC50 is at most 0.1 µM in assay [1] (setting [8]); 0.1 to 1 µM in assay [2] (setting [9]); 0.1 to 1 µM in assay [3]; 0.1 to 1 µM in assay [4]; at most 0.1 µM in assay [5] (setting [10]); 0.1 to 1 µM in assay [6].
For the compound `CC1Cn2cncc2CN1c1nc(OC[C@@H]2CCCN2C)nc2c1CCN(c1cccc3cccc(Cl)c13)C2` (stereo partly shown) [Compound 22], the IC50 in assay [1] (setting [8]) was at most 0.1 µM; in assay [1] (Table 2, CTG, read-out: IC50 H358 (G12C)), 0.073 µM; in assay [2] (setting [9]), at most 0.1 µM; in assay [2] (Table 2, read-out: IC50 A375 (wide type)), 0.096 µM; in assay [3], at most 0.1 µM; in assay [4], at most 0.1 µM. For the same compound, the IC50 in assay [5] (setting [10]) is at most 0.1 µM; in assay [5] (Table 2, read-out: IC50 AGS (G12D)), 0.054 µM; in assay [6], 0.1 to 1 µM.
Take `CN(C)CCOc1nc2c(c(N3CCn4cncc4C3)n1)CCN(c1cccc3cccc(Cl)c13)C2` [Compound 16]: the IC50 in assay [1] (setting [8]) was 0.1 to 1 µM; in assay [2] (setting [9]), 0.1 to 1 µM; in assay [3], at most 0.1 µM; in assay [7], at most 0.1 µM.
With `Clc1cccc2cccc(N3CCc4c(nc(OCC56CCCN5CCC6)nc4N4CCn5cncc5C4)C3)c12` [Compound 24], the IC50 is 0.1 to 1 µM in assay [1] (setting [8]); 0.1 to 1 µM in assay [2] (setting [9]); 1 to 10 µM in assay [3]; 0.1 to 1 µM in assay [4]; 1 to 10 µM in assay [5] (setting [10]); over 10 µM in assay [6].
On to `CN1CCO[C@H](COc2nc3c(c(N4CCn5cncc5C4)n2)CCN(c2cccc4cccc(Cl)c24)C3)C1` [Compound 27], for which the IC50 in assay [1] (setting [8]) lay within 0.1 to 1 µM; in assay [2] (setting [9]), 1 to 10 µM; in assay [3], 0.1 to 1 µM; in assay [4] it was 0.1 to 1 µM; in assay [5] (setting [10]), 0.1 to 1 µM; in assay [6], 1 to 10 µM.
For `CN1CCC[C@H]1COc1nc2c(c(N3CCc4oncc4C3)n1)CCN(c1cccc3cccc(Cl)c13)C2` [Compound 34], the IC50 fell in the range of 0.1 to 1 µM in assay [1] (setting [8]); 1 to 10 µM in assay [2] (setting [9]); 0.1 to 1 µM in assay [3]; 0.1 to 1 µM in assay [4]; 0.1 to 1 µM in assay [5] (setting [10]); 1 to 10 µM in assay [6].
As to `CN1CC[C@@H](COc2nc3c(c(N4CCn5cncc5C4)n2)CCN(c2cccc4cccc(Cl)c24)C3)C1` [Compound 28], the IC50 lay within 0.1 to 1 µM in assay [1] (setting [8]); 0.1 to 1 µM in assay [2] (setting [9]); 0.1 to 1 µM in assay [3]; 0.1 to 1 µM in assay [4]; 0.1 to 1 µM in assay [5] (setting [10]); 1 to 10 µM in assay [6].
As for `CN1CCC[C@H]1COc1nc2c(c(N3CCn4c(cnc4N)C3)n1)CCN(c1cccc3cccc(Cl)c13)C2` [Compound 7], the IC50 in assay [1] (setting [8]) lay in the range of 0.1 to 1 µM; in assay [2] (setting [9]), 0.1 to 1 µM; in assay [3], 1 to 10 µM; in assay [7], 0.1 to 1 µM.
Regarding `Clc1cccc2cccc(N3CCc4c(nc(OCCN5CCCCC5)nc4N4CCn5cncc5C4)C3)c12` [Compound 31], the IC50 is 0.1 to 1 µM in assay [1] (setting [8]); 1 to 10 µM in assay [2] (setting [9]); 0.1 to 1 µM in assay [3]; 0.1 to 1 µM in assay [4]; 0.1 to 1 µM in assay [5] (setting [10]); 1 to 10 µM in assay [6].
With `CN1CCC[C@H]1COc1nc2c(c(N3CCn4cnc(Br)c4C3)n1)CCN(c1cccc3cccc(Cl)c13)C2` [Compound 33], the IC50 was at most 0.1 µM in assay [1] (setting [8]); 0.1 to 1 µM in assay [2] (setting [9]); 0.1 to 1 µM in assay [3]; at most 0.1 µM in assay [4]; at most 0.1 µM in assay [5] (setting [10]); 0.1 to 1 µM in assay [6].
On to `COC1CN(c2nc(OC[C@@H]3CCCN3C)nc3c2CCN(c2cccc4cccc(Cl)c24)C3)Cc2cncn21` (stereo partly shown) [Compound 23], for which the IC50 lay within 0.1 to 1 µM in assay [1] (setting [8]); 0.1 to 1 µM in assay [2] (setting [9]); 0.1 to 1 µM in assay [3]; 0.1 to 1 µM in assay [4]; 0.1 to 1 µM in assay [5] (setting [10]); 1 to 10 µM in assay [6].
On to `CN1CCC2(CC1)CC(Oc1nc3c(c(N4CCn5cncc5C4)n1)CCN(c1cccc4cccc(Cl)c14)C3)C2` [Compound 35], for which the IC50 lay within 0.1 to 1 µM in assay [1] (setting [8]); 1 to 10 µM in assay [2] (setting [9]); 1 to 10 µM in assay [3]; 1 to 10 µM in assay [4]; 1 to 10 µM in assay [5] (setting [10]); 1 to 10 µM in assay [6].
On to `CN(C)CCCOc1nc2c(c(N3CCn4cncc4C3)n1)CCN(c1cccc3cccc(Cl)c13)C2` [Compound 21], for which the IC50 in assay [1] (setting [8]) was at most 0.1 µM; in assay [2] (setting [9]), 0.1 to 1 µM; in assay [3], 0.1 to 1 µM; in assay [4] it was 0.1 to 1 µM; in assay [5] (setting [10]), at most 0.1 µM; in assay [6], 0.1 to 1 µM.
